{"source": "patent US20100120700A1", "about": "“METHODS AND COMPOSITIONS FOR TREATING CERVICAL CANCER” (priority 2000, published 2010)", "experiment_in_all_cases": "G assay PDZ-PL binding", "key": {"KIAA0147 domain 1": {"target": "T1, KIAA0147 domain 1 (Homo sapiens, UniProt Q14160)", "T1 construct": "made in house; host or cells: E. coli (DH5alpha, BL21 or JM109)", "T1 sequence (Q14160 with tags, fused parts or gaps)": "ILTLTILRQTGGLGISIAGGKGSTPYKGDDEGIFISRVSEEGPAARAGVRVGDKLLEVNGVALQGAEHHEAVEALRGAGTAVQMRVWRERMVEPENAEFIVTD", "conditions": "A450 nm, peptide 10 uM, protein 5", "procedure,_shortened": "(§1)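 Plate ELISA: anti-GST antibody coat, BSA block, then GST/PDZ fusion (GST alone as negative control). Biotinylated PL peptide 20 uM (10 uM in G′ variant) added, 10 min 4 °C plus 20 min 25 °C; streptavidin-HRP, TMB, absorbance 450 nm.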"}, "KIAA0147 domain 3": {"target": "T2, KIAA0147 domain 3 (Homo sapiens, UniProt Q14160)", "T2 construct": "made in house; host or cells: E. coli (DH5alpha, BL21 or JM109)", "T2 sequence (Q14160 with tags, fused parts or gaps)": "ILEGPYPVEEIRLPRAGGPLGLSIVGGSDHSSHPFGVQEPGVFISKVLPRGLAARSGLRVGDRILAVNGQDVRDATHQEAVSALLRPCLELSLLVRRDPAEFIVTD", "conditions": "A450 nm, peptide 10 uM, protein 5", "procedure,_shortened": "as §1"}, "KIAA0316 domain 1": {"target": "T3, KIAA0316 domain 1 (Homo sapiens, UniProt Q14CM0)", "T3 construct": "made in house; host or cells: E. coli (DH5alpha, BL21 or JM109), vector pGEX-3X", "T3 sequence (Q14CM0 72-159)": "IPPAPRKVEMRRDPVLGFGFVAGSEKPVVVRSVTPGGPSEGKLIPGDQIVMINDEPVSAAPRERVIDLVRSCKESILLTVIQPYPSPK", "conditions": "peptide 10 uM, protein 5", "procedure,_shortened": "as §1"}, "KIAA1634 domain 1": {"target": "T4, KIAA1634 domain 1 (Homo sapiens, UniProt Q5TCQ9)", "T4 construct": "made in house; host or cells: E. coli (DH5alpha, BL21 or JM109)", "T4 sequence (Q5TCQ9 401-502)": "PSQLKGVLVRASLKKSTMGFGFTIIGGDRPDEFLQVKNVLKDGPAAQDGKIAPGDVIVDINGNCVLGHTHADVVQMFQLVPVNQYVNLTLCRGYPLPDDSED", "conditions": "peptide 10 uM, protein 5", "procedure,_shortened": "as §1"}, "KIAA1719 domain 5": {"target": "T5, KIAA1719 domain 5 (Homo sapiens, UniProt Q9C0E4)", "T5 construct": "made in house; host or cells: E. coli (DH5alpha or BL-21)", "T5 sequence (Q9C0E4 with tags, fused parts or gaps)": "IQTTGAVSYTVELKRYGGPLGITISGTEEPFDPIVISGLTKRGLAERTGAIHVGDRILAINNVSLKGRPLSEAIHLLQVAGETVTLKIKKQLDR", "conditions": "peptide 10 uM, protein 5", "procedure,_shortened": "as §1"}, "MAGI 1 domain 4": {"target": "T6, MAGI 1 domain 4 (Homo sapiens, UniProt Q96QZ7)", "T6 construct": "made in house; host or cells: E. coli (DH5alpha, BL21 or JM109)", "T6 sequence (Q96QZ7 with tags, fused parts or gaps)": "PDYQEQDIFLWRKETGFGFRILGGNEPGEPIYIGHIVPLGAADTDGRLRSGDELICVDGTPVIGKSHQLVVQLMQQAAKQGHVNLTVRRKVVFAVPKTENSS", "conditions": "peptide 10 uM, protein 5", "procedure,_shortened": "as §1"}, "MINT1 domain 2": {"target": "T7, MINT1 domain 2 (Homo sapiens, UniProt Q02410)", "T7 construct": "made in house; host or cells: E. coli (DH5alpha, BL21 or JM109), vector pGEX-3X", "T7 sequence (Q02410 with tags, fused parts or gaps)": "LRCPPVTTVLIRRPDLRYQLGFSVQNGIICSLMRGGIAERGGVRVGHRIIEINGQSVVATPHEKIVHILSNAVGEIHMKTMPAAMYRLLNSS", "conditions": "peptide 10 uM, protein 5", "procedure,_shortened": "as §1"}, "NSP #42.5 domain 1": {"target": "T8, NSP #42.5 domain 1 (Homo sapiens, UniProt Q92743)", "T8 construct": "made in house; host or cells: E. coli (DH5alpha or BL-21)", "T8 sequence (Q92743 359-473)": "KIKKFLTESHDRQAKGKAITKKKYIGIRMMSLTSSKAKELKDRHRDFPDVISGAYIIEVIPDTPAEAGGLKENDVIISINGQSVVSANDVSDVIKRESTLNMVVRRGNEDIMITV", "conditions": "peptide 10 uM, protein 5", "procedure,_shortened": "as §1"}, "PSD95 domain 1": {"target": "T9, PSD95 domain 1 (Homo sapiens, UniProt P78352)", "T9 construct": "made in house; host or cells: E. coli (DH5alpha, BL21 or JM109), vector pGEX-3X", "T9 sequence (P78352 62-156)": "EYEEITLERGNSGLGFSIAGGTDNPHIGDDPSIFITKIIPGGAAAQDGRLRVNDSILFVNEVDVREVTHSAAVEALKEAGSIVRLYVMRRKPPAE", "conditions": "peptide 10 uM, protein 5", "procedure,_shortened": "as §1"}, "SITAC-18 domain 1": {"target": "T10, SITAC-18 domain 1 (Homo sapiens, UniProt Q9H190)", "T10 construct": "made in house; host or cells: E. coli (DH5alpha or BL-21)", "T10 sequence (Q9H190 104-195)": "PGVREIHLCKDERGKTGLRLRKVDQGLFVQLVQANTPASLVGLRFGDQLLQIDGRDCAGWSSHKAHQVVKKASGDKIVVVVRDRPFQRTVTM", "conditions": "peptide 10 uM, protein 5", "procedure,_shortened": "as §1"}, "[1]": {"target": "T11, Syntrophin gamma 2 domain 1 (Homo sapiens, UniProt Q9NY99)", "T11 construct": "made in house; host or cells: E. coli (DH5alpha, BL21 or JM109), vector pGEX-3X", "T11 sequence (Q9NY99 65-163)": "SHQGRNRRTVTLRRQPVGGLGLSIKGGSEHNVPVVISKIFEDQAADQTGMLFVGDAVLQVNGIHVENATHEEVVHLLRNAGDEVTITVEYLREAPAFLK", "conditions": "peptide 10 uM, protein 5", "procedure,_shortened": "as §1"}, "TIP 43 #264.1 domain 1": {"target": "T12, TIP 43 #264.1 domain 1 (Homo sapiens, UniProt Q13884)", "T12 construct": "made in house; host or cells: E. coli (DH5alpha, BL21 or JM109)", "T12 sequence (Q13884 106-201)": "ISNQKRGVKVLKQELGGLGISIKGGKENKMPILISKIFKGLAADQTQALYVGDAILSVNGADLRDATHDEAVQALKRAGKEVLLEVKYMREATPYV", "conditions": "vs GST only well, peptide 10 uM, protein 5", "procedure,_shortened": "as §1"}, "X-11 beta domain 2": {"target": "T13, X-11 beta domain 2 (Homo sapiens, UniProt Q99767)", "T13 construct": "made in house; host or cells: E. coli (DH5alpha or BL-21)", "T13 sequence (Q99767 with tags, fused parts or gaps)": "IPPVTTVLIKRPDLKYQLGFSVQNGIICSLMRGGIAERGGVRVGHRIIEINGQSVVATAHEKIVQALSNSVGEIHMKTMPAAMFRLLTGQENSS", "conditions": "peptide 10 uM, protein 5", "procedure,_shortened": "as §1"}, "ZO-1 domain 1": {"target": "T14, ZO-1 domain 1 (Homo sapiens, UniProt Q07157)", "T14 construct": "made in house; host or cells: E. coli (DH5alpha, BL21 or JM109)", "T14 sequence (Q07157 with tags, fused parts or gaps)": "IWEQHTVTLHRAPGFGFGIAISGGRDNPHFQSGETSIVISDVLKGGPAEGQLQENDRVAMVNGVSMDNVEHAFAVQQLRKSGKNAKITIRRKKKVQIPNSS", "conditions": "peptide 10 uM, protein 5", "procedure,_shortened": "as §1"}}, "note": "“And” between values parts separate entries of the source, which are not always exact repeats. Equal values may be shown once.", "data": [{"substance": "20 mer peptide corresponding to the C-terminus of HPV16 E6 (PDZ ligand), biotinylated in binding assays; ends SSRTRRETQL (SEQ ID NO: 13) [HPV E6 #16]", "values": [{"measurement": "Ave OD", "setting": "KIAA0147 domain 1", "value": "2.1465 and 3.764"}, {"measurement": "Ave OD", "setting": "KIAA0147 domain 3", "value": "2.0785 and 1.072"}, {"measurement": "Ave OD", "setting": "KIAA0316 domain 1; A450 nm", "value": "0.343 and 0.6125"}, {"measurement": "OD S/N", "setting": "KIAA0316 domain 1; vs GST only well", "value": "2.34 and 2.56"}, {"measurement": "Ave OD", "setting": "KIAA1634 domain 1; A450 nm", "value": "3.465 and 3.336"}, {"measurement": "OD S/N", "setting": "KIAA1634 domain 1; vs GST only well", "value": "19.04 and 19.45"}, {"measurement": "Ave OD", "setting": "KIAA1719 domain 5; A450 nm", "value": 0.3895}, {"measurement": "OD S/N", "setting": "KIAA1719 domain 5; vs GST only well", "value": 1.81}, {"measurement": "Ave OD", "setting": "MAGI 1 domain 4; A450 nm", "value": "0.395 and 0.496"}, {"measurement": "OD S/N", "setting": "MAGI 1 domain 4; vs GST only well", "value": "1.20 and 1.58"}, {"measurement": "Ave OD", "setting": "MINT1 domain 2; A450 nm", "value": 0.5925}, {"measurement": "OD S/N", "setting": "MINT1 domain 2; vs GST only well", "value": "2.76 and 2.24"}, {"measurement": "Ave OD", "setting": "NSP #42.5 domain 1; A450 nm", "value": 0.4165}, {"measurement": "OD S/N", "setting": "NSP #42.5 domain 1; vs GST only well", "value": 1.95}, {"measurement": "Ave OD", "setting": "PSD95 domain 1; A450 nm", "value": 0.942}, {"measurement": "OD S/N", "setting": "PSD95 domain 1; vs GST only well", "value": 4.81}, {"measurement": "Ave OD", "setting": "SITAC-18 domain 1; A450 nm", "value": 0.3975}, {"measurement": "OD S/N", "setting": "SITAC-18 domain 1; vs GST only well", "value": 1.63}, {"measurement": "Ave OD", "setting": "[1]; A450 nm", "value": "0.469 and 0.7725"}, {"measurement": "OD S/N", "setting": "[1]; vs GST only well", "value": "2.76 and 3.13"}, {"measurement": "OD S/N", "setting": "TIP 43 #264.1 domain 1", "value": "8.50 and 8.76"}, {"measurement": "Ave OD", "setting": "X-11 beta domain 2; A450 nm", "value": "0.4315 and 0.4265"}, {"measurement": "OD S/N", "setting": "X-11 beta domain 2; vs GST only well", "value": "2.95 and 1.78"}, {"measurement": "Ave OD", "setting": "ZO-1 domain 1; A450 nm", "value": "0.4125 and 0.5215"}, {"measurement": "OD S/N", "setting": "ZO-1 domain 1; vs GST only well", "value": "1.83 and 2.83"}]}]}
